Measured values reported in patent publication US12692269B2, “Therapeutic compounds” (Genentech, Inc., priority 2019, dated 2026).

Key:
Format in all cases: binding
[1] = molecular target: TEAD1 YAP50-100 (Homo sapiens, UniProt P28347); assay: TEAD1-YAP HTRF (TR-FRET) protein-protein interaction assay; conditions: TEAD1, YAP peptide 50-100, HTRF; for EC50: read-out: TEAD1 YAP50-100 HTRF combined: EC50
Procedure, shortened: (§1)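 His-tagged TEAD YAP-binding domain (aa 217-447) pre-bound to Eu anti-His tracer, incubated with compound 30 min, then biotinylated YAP (aa 50-100) or TAZ (aa 13-57) peptide with streptavidin-XL665 added for 60 min at room temperature. TR-FRET read at 665/615 nm; IC50 or EC50 from four-parameter fit.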

[2] = molecular target: TEAD2 YAP50-100 (Homo sapiens, UniProt Q15562); assay: TEAD2-YAP HTRF (TR-FRET) protein-protein interaction assay; conditions: TEAD2, YAP peptide 50-100, HTRF; for EC50: read-out: TEAD2 YAP50-100 HTRF combined: EC50
Procedure, shortened: as §1

[3] = molecular target: TEAD3 YAP50-100 (Homo sapiens, UniProt Q99594); assay: TEAD3-YAP HTRF (TR-FRET) protein-protein interaction assay; conditions: TEAD3, YAP peptide 50-100, HTRF; for EC50: read-out: TEAD3 YAP50-100 HTRF combined: EC50
Procedure, shortened: as §1

[4] = molecular target: TEAD4 YAP50-100 (Homo sapiens, UniProt Q15561); assay: TEAD4-YAP HTRF (TR-FRET) protein-protein interaction assay; conditions: TEAD4, YAP peptide 50-100, HTRF; for EC50: read-out: TEAD4 YAP50-100 HTRF combined: EC50
Procedure, shortened: as §1

[5] = molecular target: TEAD1 TAZ (amino acids 13-57) (Homo sapiens, UniProt P28347); assay: TEAD1-TAZ HTRF (TR-FRET) protein-protein interaction assay; conditions: for TEAD1 TAZ HTRF combined: Max % Inhibition: TEAD1, TAZ peptide; for EC50: TEAD1-TAZ HTRF, TR-FRET 665 nm/615 nm, read-out: TEAD1 TAZ HTRF combined: EC50
Procedure, shortened: as §1

[6] = molecular target: TEAD2 TAZ (amino acids 13-57) (Homo sapiens, UniProt Q15562); assay: TEAD2-TAZ HTRF (TR-FRET) protein-protein interaction assay; conditions: for TEAD2 TAZ HTRF combined: Max % Inhibition: TEAD2, TAZ peptide; for EC50: TEAD2-TAZ HTRF, TR-FRET 665 nm/615 nm, read-out: TEAD2 TAZ HTRF combined: EC50
Procedure, shortened: as §1

[7] = molecular target: TEAD3 TAZ (amino acids 13-57) (Homo sapiens, UniProt Q99594); assay: TEAD3-TAZ HTRF (TR-FRET) protein-protein interaction assay; conditions: for TEAD3 TAZ HTRF combined: Max % Inhibition: TEAD3, TAZ peptide; for EC50: TEAD3-TAZ HTRF, TR-FRET 665 nm/615 nm, read-out: TEAD3 TAZ HTRF combined: EC50
Procedure, shortened: as §1

[8] = molecular target: TEAD4 TAZ (amino acids 13-57) (Homo sapiens, UniProt Q15561); assay: TEAD4-TAZ HTRF (TR-FRET) protein-protein interaction assay; conditions: for TEAD4 TAZ HTRF combined: Max % Inhibition: TEAD4, TAZ peptide; for EC50: TEAD4-TAZ HTRF, TR-FRET 665 nm/615 nm, read-out: TEAD4 TAZ HTRF combined: EC50
Procedure, shortened: as §1

Chain of TEAD4 TAZ (amino acids 13-57) (Q15561 217-434 limits assumed): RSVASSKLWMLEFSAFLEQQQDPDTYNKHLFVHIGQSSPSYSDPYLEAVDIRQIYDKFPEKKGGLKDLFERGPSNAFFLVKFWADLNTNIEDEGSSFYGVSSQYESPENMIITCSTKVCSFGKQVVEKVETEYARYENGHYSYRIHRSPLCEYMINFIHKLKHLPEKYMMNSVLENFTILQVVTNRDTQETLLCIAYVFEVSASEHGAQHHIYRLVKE
Chain of TEAD4 YAP50-100 (Q15561 217-434 limits assumed): as above
Chain of TEAD2 TAZ (amino acids 13-57) (Q15562 217-447): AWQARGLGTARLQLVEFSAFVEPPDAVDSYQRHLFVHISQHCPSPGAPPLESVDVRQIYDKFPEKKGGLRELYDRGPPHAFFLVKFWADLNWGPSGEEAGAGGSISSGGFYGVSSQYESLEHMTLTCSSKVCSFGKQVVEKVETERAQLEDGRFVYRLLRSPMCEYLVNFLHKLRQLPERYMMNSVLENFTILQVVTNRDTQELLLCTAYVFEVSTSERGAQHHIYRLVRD
Chain of TEAD2 YAP50-100 (Q15562 217-447): as above
Chain of TEAD3 YAP50-100 (Q99594 173-435 limits assumed): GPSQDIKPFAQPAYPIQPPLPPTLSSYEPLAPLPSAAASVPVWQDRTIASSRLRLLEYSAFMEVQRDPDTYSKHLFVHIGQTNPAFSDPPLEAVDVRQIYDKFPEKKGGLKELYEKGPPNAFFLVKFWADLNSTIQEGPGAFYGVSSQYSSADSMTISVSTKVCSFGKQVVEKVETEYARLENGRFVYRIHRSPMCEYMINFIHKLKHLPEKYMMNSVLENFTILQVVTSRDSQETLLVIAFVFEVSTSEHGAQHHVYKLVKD
Chain of TEAD3 TAZ (amino acids 13-57) (Q99594 173-435 limits assumed): as above
Chain of TEAD1 YAP50-100 (P28347 167-426 limits assumed): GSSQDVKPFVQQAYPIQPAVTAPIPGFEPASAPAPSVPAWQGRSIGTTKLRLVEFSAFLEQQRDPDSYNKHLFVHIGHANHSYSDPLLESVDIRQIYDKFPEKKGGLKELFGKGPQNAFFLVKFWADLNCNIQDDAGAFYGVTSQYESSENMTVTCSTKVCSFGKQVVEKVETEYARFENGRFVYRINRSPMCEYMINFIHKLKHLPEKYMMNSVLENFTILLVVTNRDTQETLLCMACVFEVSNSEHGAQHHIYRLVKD
Chain of TEAD1 TAZ (amino acids 13-57) (P28347 167-426 limits assumed): as above

SMILES | TEAD1 YAP50-100 HTRF combined: Max % Inhibition [1] [%] | EC50 [1] [nM] | TEAD2 YAP50-100 HTRF combined: Max % Inhibition [2] [%] | EC50 [2] [nM] | TEAD3 YAP50-100 HTRF combined: Max % Inhibition [3] [%] | EC50 [3] [nM] | TEAD4 YAP50-100 HTRF combined: Max % Inhibition [4] [%] | EC50 [4] [nM] | TEAD1 TAZ HTRF combined: Max % Inhibition [5] [%] | EC50 [5] [nM] | TEAD2 TAZ HTRF combined: Max % Inhibition [6] [%] | EC50 [6] [nM] | TEAD3 TAZ HTRF combined: Max % Inhibition [7] [%] | EC50 [7] [nM] | TEAD4 TAZ HTRF combined: Max % Inhibition [8] [%] | EC50 [8] [nM]
C[C@@H]1[C@H](CF)CN1C(=O)c1c(-c2ncccn2)nn2c(=O)cc(-c3ccc(CC4CCCC4)cc3)[nH]c12 (single isomer, unassigned) [Isomer B, Example 43] | 65.0 | 50 | 73.0 | 20 | 66.0 | 140 | 51.0 | 370 | 60.0 | 50 | 71.5 | 20 | 65.5 | 150 | 50.0 | 270
Cn1cnc(-c2nn3c(=O)cc(-c4ccc(C5CCCCC5)cc4)[nH]c3c2C(=O)N2CC(CF)C2)c1 [Compound 32, 5-(4-Cyclohexylphenyl)-3-(3-(fluoromethyl)azetidine-1-carbonyl)-2-(1-methyl-1H-imidazol-4-yl)pyrazolo[1,5-a]pyrimidin-7(4H)-one] | 65.0 | 50 | 61.5 | 10 | 61.0 | 60 | 38.5 | 380 | 59.5 | 50 | 59.0 | 10 | 49.5 | 60 | 31.0 | 290
CCCCc1ccc(-c2cc(=O)n3nc(-c4nccnc4C)c(C(=O)N4CC(CF)C4)c3[nH]2)cc1 [Compound 58, 5-(4-Butylphenyl)-3-(3-(fluoromethyl)azetidine-1-carbonyl)-2-(3-methylpyrazin-2-yl)pyrazolo[1,5-a]pyrimidin-7(4H)-one] | 71.0 | 40 | 63.0 | 10 | 64.5 | 90 | 59.0 | 180 | 70.5 | 40 | 66.5 | 10 | 58.5 | 100 | 68.5 | 140
Cc1nccnc1-c1nn2c(=O)cc(-c3ccc(C4(F)CCCCC4)cc3)[nH]c2c1C(=O)N1CC(CF)C1 [Compound 59, 5-(4-(1-Fluorocyclohexyl)phenyl)-3-(3-(fluoromethyl)azetidine-1-carbonyl)-2-(3-methylpyrazin-2-yl)pyrazolo[1,5-a]pyrimidin-7(4H)-one] | 68.0 | 160 | 61.5 | 30 | 65.5 | 290 | 40.0 | 180 | 65.5 | 160 | 61.0 | 30 | 59.0 | 340 | 42.5 | 180
Cc1nccnc1-c1nn2c(=O)cc(-c3ccc(OC(c4ccccc4)C(F)(F)F)cc3)[nH]c2c1C(=O)N1C[C@H](CF)[C@@H]1C (single isomer, unassigned) [Final product obtained using Enantiomer B from Step 1, Example 56] | 66.0 | 430 | 83.5 | 80 | 71.0 | 830 | 59.5 | 2850 | 60.5 | 360 | 77.0 | 70 | 68.0 | 940 | 53.0 | 2100
Cc1nccnc1-c1nn2c(=O)cc(-c3ccc(-c4ccccc4)cc3)[nH]c2c1C(=O)N1CC(CF)C1 [Compound 60, 5-([1,1′-Biphenyl]-4-yl)-3-(3-(fluoromethyl)azetidine-1-carbonyl)-2-(3-methylpyrazin-2-yl)pyrazolo[1,5-a]pyrimidin-7(4H)-one] | 80.0 | 30 | 66.5 | 10 | 78.0 | 200 | 60.0 | 610 | 78.5 | 40 | 66.5 | 10 | 74.0 | 220 | 64.0 | 510
Cc1nccnc1-c1nn2c(=O)cc(-c3ccc(CC(C)(C)C)cc3)[nH]c2c1C(=O)N1C[C@H](CF)[C@@H]1C (racemic) [Compound 73, 5-[4-(2,2-dimethylpropyl)phenyl]-2-(3-methylpyrazin-2-yl)-3-[rac-(2S,3S)-3-(fluoromethyl)-2-methyl-azetidine-1-carbonyl]-4H-pyrazolo[1,5-a]pyrimidin-7-one] | 74.0 | 120 | 67.0 | 20 | 69.5 | 150 | 58.5 | 100 | 65.5 | 110 | 68.5 | 20 | 59.5 | 160 | 56.0 | 80
O=C(c1c(-c2cnco2)nn2c(=O)cc(-c3ccc(C4CCCCC4)cc3)[nH]c12)N1CC(CF)C1 [Compound 39, 5-(4-Cyclohexylphenyl)-3-(3-(fluoromethyl)azetidine-1-carbonyl)-2-(oxazol-5-yl)pyrazolo[1,5-a]pyrimidin-7(4H)-one] | 65.0 | 50 | 62.0 | 20 | 61.5 | 60 | 34.5 | 650 | 37.5 | 90 | 56.5 | 20 | 53.5 | 60 | 18.0 | 370
O=C(c1c(-c2ncccn2)nn2c(=O)cc(-c3ccc(C4(C5CCCC5)CC4)cc3)[nH]c12)N1CC(CF)C1 [Compound 57, 5-(4-(1-Cyclopentylcyclopropyl)phenyl)-3-(3-(fluoromethyl)azetidine-1-carbonyl)-2-(pyrimidin-2-yl)pyrazolo[1,5-a]pyrimidin-7(4H)-one] | 56.0 | 80 | 51.0 | 20 | 53.0 | 100 | 35.0 | 70 | 46.5 | 70 | 53.5 | 10 | 50.5 | 90 | 54.5 | 60
